Among the data in ChEMBL document CHEMBL1121972, “Spasmolytic agents. 2. 1,2,3,4-Tetrahydro-2-naphthylamine derivatives” (1982) are Activity values, retold here.

The test system of assay [1] is Canis familiaris. Nature of the assay: Antispasmodic activity was measured on stomach contraction in anesthetized dog after iv administration of a dose of 0.1 mg/kg. It is filed as functional, Canis lupus familiaris.
For assay [2], the system named is Canis familiaris. The assay can be described thus: Antispasmodic activity was measured on colonic contraction in anesthetized dog after iv administration of a dose of 0.1 mg/kg. It counts as functional, Canis lupus familiaris.

For `CCN(CCCCO)C1CCc2cc(OC)ccc2C1` (stereo not given), the results for the Activity with Canis familiaris [1] and in the assay on Canis familiaris [2] were below 5 and 2.6, respectively.

For `CCN(CCCCOCc1ccc(OC)c(OC)c1)C1CCc2cc(OC)ccc2C1` (stereo not given), the Activity in the assay with Canis familiaris [1] is below 5; in the assay with Canis familiaris [2] it was -4.3.

For `CCN(CCCCOC(=O)c1cc(OC)c(OC)c(OC)c1)C1CCc2cc(OC)ccc2C1.CS(=O)(=O)O` (stereo not given), the values for the Activity in the assay on Canis familiaris [1] and with Canis familiaris [2] were below 5 and 1.1, respectively.

`CCN(CCCCCCO)C1CCc2cc(OC)ccc2C1` (stereo not given) gave an Activity in the assay on Canis familiaris [2] of 5.2.

In the assay on Canis familiaris [1], `CCCN(CCCCOC(=O)c1ccc(OC)c(OC)c1)C1CCc2cc(OC)ccc2C1.Cl` (stereo not given) displayed an Activity below 5.

Take `CCOc1ccc2c(c1)CCC(N(CC)CCCCOC(=O)c1ccc(OC)c(OC)c1)C2.Cl` (stereo not given): the values for the Activity with Canis familiaris [1] and with Canis familiaris [2] were below 5 and 7.4, respectively.

Take `COc1ccc2c(c1)CCC(N(C)CCCCOC(=O)c1ccc(OC)c(OC)c1)C2.Cl` (stereo not given): the results for the Activity in the assay on Canis familiaris [1] and in the assay with Canis familiaris [2] were below 5 and -4.9, respectively.

The compound `CCN(CCCCOC(=O)c1ccc(OC)c(OC)c1)C1CCc2cc(OC)c(OC)cc2C1.Cl` (stereo not given) had an Activity in the assay with Canis familiaris [1] of 11.8.

Turning to `CCN(CCCCOC(=O)c1ccc(OC)c(OC)c1)C1CCc2ccccc2C1.Cl` (stereo not given), the Activity in the assay on Canis familiaris [1] was below 5.

Consider `CCN(CCCCOC(=O)c1ccc(OC)c(OC)c1)C1CCc2cc(OC)ccc2C1.Cl` (stereo not given), for which the Activity in the assay with Canis familiaris [1] amounted to 6.6.

As for `CCN(CC(C)(C)COC(=O)c1ccc(OC)c(OC)c1)C1CCc2cc(OC)ccc2C1.Cl` (stereo not given), the Activity in the assay on Canis familiaris [1] is below 5; with Canis familiaris [2], 15.8.

As to `CCCOc1ccc(C(=O)OCCCCN(CC)C2CCc3cc(OC)ccc3C2)cc1.Cl` (stereo not given), the results for the Activity in the assay with Canis familiaris [1] and with Canis familiaris [2] were below 5 and 10.2, respectively.

In the case of `CCN(CCOC(=O)c1ccc(OC)c(OC)c1)C1CCc2cc(OC)ccc2C1.Cl` (stereo not given), the results for the Activity in the assay on Canis familiaris [1] and with Canis familiaris [2] were below 5 and 11.4, respectively.

As for `CCN(CCCCOC(=O)c1c(OC)cccc1OC)C1CCc2cc(OC)ccc2C1.Cl` (stereo not given), the Activity in the assay on Canis familiaris [1] was below 5; in the assay on Canis familiaris [2], -8.7.

Regarding `CCN(CCCCOC(=O)c1ccc(OC)c(OC)c1)C1CCc2c(cccc2OC)C1.Cl` (stereo not given), the Activity is below 5 in the assay on Canis familiaris [1] and 13.3 in the assay on Canis familiaris [2].

In the case of `CCN(CCCCCCCCCCOC(=O)c1ccc(OC)c(OC)c1)C1CCc2cc(OC)ccc2C1.Cl` (stereo not given), the Activity in the assay with Canis familiaris [1] is on record as below 5; with Canis familiaris [2], 13.7.

On to `CCN(CCCCOC(=O)c1ccc(OC)cc1)C1CCc2cc(OC)ccc2C1.Cl` (stereo not given), for which the Activity is recorded as below 5 in the assay on Canis familiaris [1] and 8.1 with Canis familiaris [2].

Regarding `CCN(CCCCOC(=O)c1ccc(OC)c(OC)c1)C1CCc2c(OC)ccc(OC)c2C1.Cl` (stereo not given), the Activity in the assay with Canis familiaris [1] is listed as below 5; with Canis familiaris [2], 9.2.

In the case of `CCN(CCOCCOC(=O)c1ccc(OC)c(OC)c1)C1CCc2cc(OC)ccc2C1.Cl` (stereo not given), the Activity with Canis familiaris [1] was below 5; in the assay with Canis familiaris [2], 0.

Take `COc1ccc2c(c1)CCC(N(CCCCOC(=O)c1ccc(OC)c(OC)c1)C(C)C)C2.Cl` (stereo not given): the Activity is reported as below 5 in the assay with Canis familiaris [1] and 19.6 with Canis familiaris [2].

In the case of `CCN(CCCCOC(=O)c1ccc2c(c1)OCO2)C1CCc2cc(OC)ccc2C1.Cl` (stereo not given), the Activity in the assay with Canis familiaris [1] was below 5; in the assay with Canis familiaris [2], 1.3.

As to `CCN(CCCCCCOC(=O)c1ccc(OC)c(OC)c1)C1CCc2ccccc2C1.Cl` (stereo not given), the Activity in the assay with Canis familiaris [1] came out at 31.3.

For `CCN(CCCCCCOC(=O)c1ccc(OC)c(OC)c1)C1CCc2cc(OC)ccc2C1.Cl` (stereo not given), the Activity in the assay with Canis familiaris [1] is recorded as below 5.

For the compound `CCOc1ccc(C(=O)OCCCCN(CC)C2CCc3cc(OC)ccc3C2)cc1.Cl` (stereo not given), the Activity is below 5 with Canis familiaris [1] and -2.5 in the assay with Canis familiaris [2].

Take `CCCOc1ccc2c(c1)CCC(N(CC)CCCCOC(=O)c1ccc(OC)c(OC)c1)C2.Cl` (stereo not given): the Activity with Canis familiaris [1] was below 5; in the assay with Canis familiaris [2], 1.4.

With `CCN(CCCCOC(=O)c1ccccc1)C1CCc2cc(OC)ccc2C1.Cl` (stereo not given), the Activity in the assay on Canis familiaris [1] is below 5; in the assay on Canis familiaris [2] it was -2.6.

As to `CCOc1cc(C(=O)OCCCCN(CC)C2CCc3cc(OC)ccc3C2)cc(OCC)c1OCC.Cl` (stereo not given), the results for the Activity in the assay with Canis familiaris [1] and in the assay with Canis familiaris [2] were below 5 and -6.8, respectively.

`CCN(CCCCOC(=O)c1ccc(OC)c(OC)c1)C1CCc2cccc(OC)c2C1.Cl` (stereo not given) gave an Activity in the assay on Canis familiaris [1] of 21.3.

`CCN(CCCCCCOC(=O)c1ccc(OC)c(OC)c1)C1CCc2cc(OC)c(OC)cc2C1.Cl` (stereo not given) gave an Activity with Canis familiaris [1] of 64.5.

On to `CCN(CCCCOC(=O)c1ccc(OC)c(OC)c1)C1CCc2cc3c(cc2C1)OCO3.Cl` (stereo not given), for which the Activity with Canis familiaris [1] is below 5; in the assay on Canis familiaris [2], 13.4.

Compound `CCN(CCCCOC(=O)c1ccc(OC)c(OC)c1)C1CCc2ccc(OC)cc2C1.Cl` (stereo not given) came in with an Activity with Canis familiaris [1] of 18.1.

As for `CCN(CCCOC(=O)c1ccc(OC)c(OC)c1)C1CCc2cc(OC)ccc2C1.Cl` (stereo not given), the Activity is listed as below 5 with Canis familiaris [1] and -1 with Canis familiaris [2].

Compound `CCN(CCCCOC(=O)c1ccc(OC)c(OC)c1)C(C)Cc1ccc(OC)cc1` (stereo not given) [MEBEVERINE] showed an Activity with Canis familiaris [1] of 2.6.
